Assays:
[1] = Solubilization of the compounds in solvents/solubilizers and clarity in lemon-lime beverage; assay type: physicochemical; conditions: for Time final beverage remained a clear solution: sucrose co-melt (caramel-melts), Q-NATURALE® 200
Protocol: To identify a sufficient delivery mechanism for the sweet enhacing compounds of the present invention, several method of solublization were tested for use in clear beverages. The overall goal was to solubilize the compounds of the invention and have them be deliverable in a clear, carbonated beverage, which can be sweetened with various forms of nutritive and non-nutritive sweeteners without negative flavor impact, i.e. no loss in efficacy (the sweetness perception increase) and no off-flavor formation. In particular, the goal was to identify a delivery mechanism that would allow the compounds to be delivered to the beverage at an “as consumed” level between 10 ppm and 50 ppm. […] The carrier ingredients should not impart any negative physical attributes or negative flavor attributes to the product. An ideal delivery system would not require the labeling of any carrier ingredients and would work with a beverage concentrate model system, preferably a 1+5 concentrate throw.
Initial trials were conducted to dissolve the compound in various flavor type solvents, including ethanol, 200 proof; triacetin; propylene glycol; lemon-lime flavor extract; lemon oil (washed); citrus oil; polysorbate 80; polysorbate 60; polysorbate 20; benzyl alcohol; and NEOBEE® M-5 oil.
In polysorbate formulations, Compound 3 and the polysorbates were accurately weighed into screw-capped glass vials according to Table 8 and heated at 70-90° C. and vortex mixed to facilitate the solubilization. The resulting mixtures were blended into 41.5 brix lemon-lime flavored beverage syrup under stirring and stored overnight at room temperature. The syrup was diluted with 5× water to achieve the final 7.7 brix lemon-lime beverage.
(§1) For example, Compound 3 and polysorbate 80 were accurately weighed into screw-capped glass vials according to Table 9 and heated at 70-90° C. and vortex mixed to facilitate the solubilization. Q-[…]® was added to the 41.5 brix lemon-lime flavored beverage syrup. The polysorbate 80 mixtures were blended into 41.5 brix lemon-lime flavored beverage syrup with Q-[…]® 200 and vortex mixed at 3000 rpm for 75 seconds. The resulting syrups were stored overnight at room temperature. The syrup was then diluted with 5× water to achieve the final 7.7 brix lemon-lime beverage. […] Solution PQ2 was able to maintain clear solution for 1 month.
(§2) Because Q-[…]® was able to maintain the stability of the sweet enhancing compounds, it was evaluated in combination with additional solvents. […] In another example, Compound 3, Q-[…]®, and either 1,2-propylene glycol or ethanol 200 proof were accurately weighed into screw-capped glass vials according to Table 10 and heated and vortex mixed to facilitate the solubilization. The resulting solution mixtures were blended into 41.5 brix lemon-lime flavored beverage syrup and vortexed at 3000 rpm for 75 seconds. The resulting syrups were stored overnight at refrigerated temperature and diluted with 5× water to achieve the final 7.7 brix lemon-lime beverage. All solutions (i.e., PGEQ1-PGEQ4) were able to maintain clear solution for 33 days at room temperature and 14 days at refrigerated temperature.
In another example, 40 mg Compound 3 and 1 g rubusoside were weighed into 20 ml glass vials. 20 ml water was added to the vial, which was vortex mixed slightly to form a suspension solution. The suspension was homogenized at 8000 rpm using a Silverson L5M-A to from an emulsion. The emulsion was heated at 121° C. for 1 h. The sample after heating was suspended at room temperature for 24 h to equilibrate and was filtered afterward. The weight ratio between rubusoside and Compound 3 was determined to be 147:1. Therefore, […] rubusoside was needed to solubilize 25 ppm Compound 3.
The ability of sugar to co-melt with compounds of the invention was also evaluated. 30 mg Compound 3 and 150 mg sucrose were dissolved in a solvent mixture of 9 ml ethanol and 1 ml water. […]

[2] = system: sweetness enhancement effect and off-taste in lemon-lime beverage; experiment: Sensory assessment / informal tasting of solubilized Compound 3 beverages; assay type: in vivo; conditions: sucrose co-melt
Protocol: as §1
as §2, with “All solutions (i.e., PGEQ1-PGEQ4) were able to maintain clear solution for 33 days at room temperature and 14 days at refrigerated temperature.” left out
The ability of sugar to co-melt with compounds of the invention was also evaluated. […]

[3] = Beverage emulsion delivery systems, physical stability; assay type: physicochemical; conditions: NEOBEE® M-5 oil phase with Q-NATURALE®, no weighting agent
Protocol: Utilizing the triacetin and NEOBEE® M-5 oil solutions described in Example 6, emulsion systems were prepared to develop a clear delivery system. A suitable emulsion system would need to have a particle size of under 100 nanometers. A series of trials were conducted in which the triacetin and NEOBEE® M-5 oil solutions were combined with a variety of matrices including preserved water (i.e., water comprising 500 ppm sodium benzoate, 400 ppm potassium sorbate and 1000 ppm citric acid), Q-[…]®, lecithin, lyso-lecithin, and citrus oil. Pre-homogenization utilizing a Silverson High Shear mixer and final homogenization utilizing a high pressure homogenizer at 20,000 psi (up to 10 passes) only achieved a particle size reduction to 146 nanometers. The emulsions were stable in beverage but were opaque. […] Therefore incorporating the compounds into a cloudy beverage emulsion or homogenizing it into a cloudy citrus (orange juice) product may be beneficial. Without being bound by theory, the opacity of the beverage would, in effect, shield the compound from the detriment of light.
For a standard beverage emulsion, the compounds need to be dissolved in the oil phase of the emulsion. Unfortunately, the compounds were mostly insoluble in citrus oil (orange oil 5×). […]

[4] = heated at 70-90° C., vortex mixed

In the case of `COc1ccc(C2CC(=O)c3c(O)cccc3O2)cc1O` (single isomer, unassigned) [Compound 3, 5-hydroxy-2-(3-hydroxy-4-methoxyphenyl)chroman-4-one], the “Precipitation of final beverages” value ([1]; encapsulated with alpha-, beta-, gamma-cyclodextrin (molar 1:1, 1:2, 1:4), 25 ppm in 7.7 brix lemon-lime beverage) is reported as “had precipitates”, the “Dissolution in polysorbate 20” value [1, 4] is reported as “did not dissolve” and the “Dissolution in polysorbate 60” value [1, 4] is reported as “did not dissolve”. The “Precipitation in final beverages” value ([1]; polysorbate 80 solutions PS1-PS6, 7.7 brix lemon-lime beverage) was “precipitated overnight”, the “Time final beverage remained a clear solution” value ([1]; 7.7 brix lemon-lime beverage, refrigerated temperature) was 14 days and the “Time final beverage remained a clear solution” value ([1]; 7.7 brix lemon-lime beverage, room temperature) was 30 days. For the same compound, the “Sweetness enhancement effect in final beverage (sensory assessment)” value ([2]; 7.7 brix lemon-lime beverage) was “maintained its sweetness enhancement effect”, the “Off-taste (informal tasting assay)” value ([2]; lemon-lime beverage) was “perceptible off-taste” and the “Physical stability of emulsion” value [3] was “physically stable”.

From patent US20160015064A1, “COMPOUNDS, COMPOSITIONS, AND METHODS FOR MODULATING SWEET TASTE” (CHROMOCELL CORPORATION, priority 2013, published 2016)
